Source: PMC12977469, “Ligand binding drives proteolysis of the SmcR master transcription factor and controls quorum sensing-state transitions in Vibrio species” (mBio, 2026)

Molecular target: T1, SmcR (Vibrio vulnificus, UniProt Q9L8G8)
T1 construct: full-length, His-tagged SmcR (homodimer); residues 1–15 not modeled in the crystal structure
Experiment: X-ray crystal structure ([…] Å) and isothermal titration calorimetry with purified protein; SAXS
Format: binding

T1 sequence (Q9L8G8 entry or part of it): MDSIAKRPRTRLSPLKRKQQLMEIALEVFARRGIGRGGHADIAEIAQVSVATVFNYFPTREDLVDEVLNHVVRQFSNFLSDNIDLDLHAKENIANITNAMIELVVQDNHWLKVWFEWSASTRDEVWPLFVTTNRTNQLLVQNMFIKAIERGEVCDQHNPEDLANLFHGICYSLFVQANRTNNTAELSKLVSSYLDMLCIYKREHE

Q: Which Kd does the source give for `O=S(=O)(c1cccs1)n1ccc(-c2ccccc2)n1` [PTSP, 3-phenyl-1-(thiophen-2-ylsulfonyl)-1H-pyrazole] here?
A: ~1000 nM
